Measured values taken from ChEMBL document CHEMBL4043289, “Fragment-Based Drug Discovery of Inhibitors of Phosphopantetheine Adenylyltransferase from Gram-Negative Bacteria” (J Med Chem, 2018).
In brackets after ≈: the same amount, converted by molar mass. Activity calls are given as the source filed them. The calls are words filed in the database; no cut-off is given here.

Columns and labels:
[1] = Inhibition of Pseudomonas aeruginosa C-terminal His-tagged PPAT expressed in Escherichia coli using 4'-phosphopantetheine as substrate preincubated for 5 mins followed by substrate and pyrophosphatase addition measured after 30 mins by malachite green reagent-based colorimetric method
[2] = Inhibition of Escherichia coli C-terminal His-tagged PPAT expressed in Escherichia coli using 4'-phosphopantetheine as substrate preincubated for 5 mins followed by substrate and pyrophosphatase addition measured after 30 mins by malachite green reagent-based colorimetric method
[3] = Lipophilicity, log D of the compound at pH 7.4; format: physicochemical; conditions: buffer
Escherichia coli [4] = test: Antibacterial activity against tolC deficient Escherichia coli BW25113 after 20 hrs by broth microdilution method; format: functional; conditions: for MIC: BW25113, 20 h
Escherichia coli [5] = test: Ratio of IC50 for Escherichia coli C-terminal His-tagged PPAT expressed in Escherichia coli using 10 times 4'-phosphopantetheine as substrate to IC50 for Escherichia coli C-terminal His-tagged PPAT expressed in Escherichia coli using 4'-phosphopantetheine as substrate
[6] = Inhibition of Escherichia coli C-terminal His-tagged PPAT expressed in Escherichia coli using 10 times 4'-phosphopantetheine as substrate preincubated for 5 mins followed by substrate and pyrophosphatase addition measured after 30 mins by malachite green reagent-based colorimetric method
Escherichia coli [7] = test: Binding affinity to Escherichia coli C-terminal His-tagged PPAT expressed in Escherichia coli assessed as change in melting temperature by SYPRO orange dye-based DSF method
[8] = Solubility of the compound; format: physicochemical
[9] = (§1) Binding affinity to Escherichia coli PPAT by SPR method
Escherichia coli [10] = test: as §1
[11] = Dissociation rate constant to Escherichia coli PPAT by SPR method
Escherichia coli [12] = test: Antibacterial activity against Escherichia coli ATCC 25922 after 20 hrs by broth microdilution method; format: functional
Escherichia coli [13] = test: Inhibition of Escherichia coli C-terminal His-tagged PPAT expressed in Escherichia coli up to 500 uM using 4'-phosphopantetheine as substrate preincubated for 5 mins followed by substrate and pyrophosphatase addition measured after 30 mins by malachite green reagent-based colorimetric method
Escherichia coli [14] = test: Inhibition of Escherichia coli C-terminal His-tagged PPAT V135I mutant using 4'-phosphopantetheine as substrate preincubated for 20 mins followed by substrate and pyrophosphatase addition by malachite green reagent-based assay
Escherichia coli [15] = test: Inhibition of Escherichia coli C-terminal His-tagged PPAT H138L mutant using 4'-phosphopantetheine as substrate preincubated for 20 mins followed by substrate and pyrophosphatase addition by malachite green reagent-based assay
Escherichia coli [16] = test: Selectivity ratio of IC50 for Escherichia coli C-terminal His-tagged PPAT M74L mutant to IC50 for Escherichia coli C-terminal His-tagged PPAT

Row | Compound | IC50 [1] [µM] | IC50 [2] [µM] | also measured
1 | COC(=O)CC(Nc1nc2[nH]c(C)cc(=O)n2n1)c1cccc(Cl)c1 (configuration not stated) | 0.49 | 2.5 | –
2 | Cc1ccc2[nH]c(N[C@H](C)c3cccc(Cl)c3)nc2n1 | 0.61 | 0.19 | logD [3]: 3.3
3 | Oc1cccc2[nH]c(CCc3cccc(Cl)c3)nc12 | 4.6 | 0.25 | MIC (Escherichia coli [4]): 32 µg/mL (≈ 117 µM)
4 | Cc1cc(=O)n2nc(NCc3cccc(Cl)c3)nc2[nH]1 | – | 7.6 | Ratio IC50 (Escherichia coli [5]): 5.7; IC50 [6]: 43 µM
5 | Cc1ccn2nc(N[C@H](C)c3cccc(Cl)c3)nc2n1 | 2.6 | 4.7 | –
6 | C[C@@H](Nc1ccc2nccnc2n1)c1cccc(Cl)c1 | 271 | 348 | –
7 | COc1ccc2[nH]cc(CCNC(=O)C(C)(C)C)c2c1 | – | 199 | ΔTm (Escherichia coli [7]): 3.1 °C
8 | Cc1nc(N)n2nc(N[C@H](C)c3cccc(Cl)c3)nc2n1 | 4.6 | 5.9 | –
9 | Cc1ccc2c(ncn2Cc2ccccc2)n1 | – | 19 | –
10 | Cc1nc2ccccc2n1Cc1nc2c(O)cccc2[nH]1 | 0.13 | 23 | –
11 | Cc1ccc2sc(N[C@H](C)c3cccc(Cl)c3)nc2n1 | 2.3 | 0.41 | –
12 | Cc1[nH]c2nc(N[C@H](C)c3cccc(Cl)c3)nn2c(=O)c1C | 1.7 | 1.1 | –
13 | Cc1cc(=O)n2nc(NCc3ccccc3)nc2[nH]1 | – | 77 | –
14 | Cc1cc(=O)n2nc(N[C@H](CCO)c3cccc(Cl)c3)nc2[nH]1 | 2 | 0.24 | Ratio IC50 (Escherichia coli [5]): 1.8; IC50 [6]: 0.44 µM
15 | Oc1cccc2[nH]c(Cc3noc4ccccc34)nc12 | 2.7 | 1 | –
16 | Cc1cc(=O)n2nc(N[C@@H](C)c3ccccc3)nc2[nH]1 | – | 120 | –
17 | NC1=NC(c2cccc(F)c2)n2c(nc3ccccc32)N1 (configuration not stated) | – | 69 | ΔTm (Escherichia coli [7]): 3.4 °C
18 | Cc1cc(=O)n2nc(N[C@H](C)c3cccc(Cl)c3)nc2[nH]1 | 0.97 | 0.25 | solubility [8]: 68 µg/mL (≈ 224 µM); Ratio IC50 (Escherichia coli [5]): 3.7; IC50 [6]: 0.92 µM; logD [3]: 1.1; Kd [9]: 0.17 µM; Ka (Escherichia coli [10]): 0.16 ×10⁵ /M/s; koff [11]: 0.0028 s⁻¹
19 | Cc1cc(=O)n2nc(NC(C)c3cccc(Cl)c3)nc2[nH]1 (racemic) | 1.4 | 0.76 | Ratio IC50 (Escherichia coli [5]): 4.2; IC50 [6]: 3.2 µM
20 | Cc1cc(C)nc(NS(=O)(=O)c2ccc(N)cc2C)n1 | – | 74 | ΔTm (Escherichia coli [7]): 8.7 °C
21 | CC(C)(CO)[C@@H](O)C(=O)NCCc1nc2c(O)cccc2[nH]1 | 114 | 30 | Activity (Escherichia coli [12]): inactive; Activity (Escherichia coli [4]): inactive
22 | Cc1ccc2oc(N[C@H](C)c3cccc(Cl)c3)nc2n1 | 4.9 | 2.4 | –
23 | CCCCCNC(=O)CCNC(=O)[C@H](O)C(C)(C)CO | – | – | MIC (Escherichia coli [12]; ATCC 25922, 20 h): 64 µg/mL (≈ 222 µM); MIC (Escherichia coli [4]): 16 µg/mL (≈ 55.5 µM); inhibition (Escherichia coli [13]): inactive
24 | CC(C)CNC(=O)[C@@H](Cc1cnc[nH]1)NC(=O)[C@H](CCC(=O)O)NC(=O)OC1c2ccccc2-c2ccccc21 | – | – | inhibition (Escherichia coli [14]): Active; inhibition (Escherichia coli [15]): Active; Ratio IC50 (Escherichia coli [16]): 25
25 | Cc1cc(=O)n2nc(N[C@H](COC(N)=O)c3cccc(Cl)c3)nc2[nH]1 | 3.9 | 0.25 | –
26 | Cc1ccc2[nH]c(N[C@H](CC#N)c3cccc(Cl)c3)nc2n1 | 0.064 | 0.056 | logD [3]: 3.3; Activity (Escherichia coli [12]): inactive; Kd [9]: 0.01 µM; Ka (Escherichia coli [10]): 13 ×10⁵ /M/s; MIC (Escherichia coli [4]): 4 µg/mL (≈ 12.8 µM); koff [11]: 0.013 s⁻¹
27 | Cc1[nH]c2nc(NCc3ccccc3F)nn2c(=O)c1C | – | 31 | ΔTm (Escherichia coli [7]): 2.5 °C
28 | CC1(C)OC(=O)c2ccccc2[C@H]1n1cncc1C(F)F | – | 163 | ΔTm (Escherichia coli [7]): 3.8 °C
